Several values for one entry are separate records, joined by “and”; a condition that tells them apart may be missing. Equal values may be shown once. Entries after “also recorded” stand apart in the source; their conditions may differ. Read-outs that look alike come from different tables or passages of the source.
Key:
calf thymus DNA (42% GC) = assay: DNA melting (absorbance at 260 nm), calf thymus DNA; conditions: 62° C. in aqueous solution
Method: (§1) DNA melting studies were conducted in a buffer (1 ml) containing 5.0 mM K2HPO4 and 0.1 mM Na2EDTA at pH 7.5. […] DNA samples were adjusted to O.D260=0.2 and incubated overnight at 37° C. before use, as previously described (Rees et al., 1993). […] The increase in absorbance at 260 nm was monitored in Hewlett Packard 9450A diode array spectrophotometer attached to a temperature programmer and controller. Both the sample and the reference cells were heated together at a rate of 0.5° C./min and the net absorbance was recorded after every 0.5° C. increase. The Tms were determined graphically from the midpoints of the absorbance versus temperature profile.

poly(dA-dT) = assay: DNA melting (absorbance at 260 nm), poly(dA-dT)
Method: as §1

[1] = test system: DNAs of varying base compositions; assay: DNA melting (absorbance at 260 nm), DNAs of varying base compositions
Method: as §1

[2] = test system: Micrococcus lysodeikticus DNA (72% GC); conditions: 6.2M proline
Method: as §1

Klenow DNA polymerase [3] = molecular target: T1, Klenow DNA polymerase (Escherichia coli, UniProt P00582); assay: Klenow DNA polymerase activity assay at 37° C.; type: biochemical; conditions: for effect on Klenow polymerase activity: 1.0M additive, separate experiment, data not shown; for effect on Klenow DNA polymerase activity: 5.0M L-proline, 37° C., 6.7, 10.0 and 15.0 mM MgCl2
T1 construct: Klenow fragment of DNA polymerase I; purchased MBI Fermentas
Method: (§2) Klenow fragment (0.1 units) was added to the microtubes with reaction mixture pre-heated to 37° C., and following 7.5 minutes incubation at 37° C. (a time-point within the region of linear kinetics determined in a separate experiment, not shown), the reaction microtubes were placed on ice, and the reaction was stopped by addition of 12 μl of 50 mM EDTA and then applied on strips of chromatographic paper (Whatman No. 3). Strips were washed three times by cold TCA 10%, dried and the radioactivity was counted.

Klenow DNA polymerase [4] = molecular target: T1, Klenow DNA polymerase; assay: Remaining activity of Klenow DNA polymerase after incubation at 65° C.; type: biochemical; conditions: 5M proline
Method: as §2
The microtubes were vortexed and Klenow enzyme was added to the samples. The Klenow DNA polymerase activity assay was performed as described in section (iv) above at 6.7 mM concentration of MgCl2. To each aliquot (5 μl) 20 μl of stock solution containing all other components of the assay were added, making a total reaction volume of 25 μl and a 5-fold dilution of the aliquots.

[5] = test system: 349 b.p. fragment (66.5% GC) from Halobacterium marismortui genomic DNA; conditions: 1.0M proline
Method: PCR was performed in 25 μl reaction mixture containing 3 ng of Halobacterium marismortui genomic DNA template, 0.12 nM of each 28-mer oligonucleotide primers 3 and 4 described in section (i) above, 0.5 units of Taq DNA polymerase, 200 μM of each dNTP, in PCR buffer containing: 10 mM Tris-HCl (pH 8.8 at 25° C.), 50 mM KCl, 0.08% Nonidet P40. […] Reaction mixtures were preheated for 3 min at their respective denaturation temperatures, except for reactions performed at Td 95° C., that were preheated for 3 min at 94° C., and then subjected to 35 thermal cycles as follows: (I) 30 sec incubation at 91-95° C., as indicated in each experiment (denaturation step); (ii) 90 sec incubation at 55° C. (primer annealing step); and (iii) 60 sec incubation at 72° C. (primer extension).

[6] = test system: 349 b.p. fragment (66.5% GC) from Halobacterium marismortui genomic DNA; conditions: 4.0M proline
Method: PCR was performed in 25 μl reaction mixture containing 250 ng of Halobacterium marismortui genomic DNA template, 0.12 nM of each 30-mer oligonucleotide primers 5 and 6 described in section (i) above, 0.3 μl of Klentaq1 and Pfu (or Vent) enzymes mixture, prepared as described (Barnes, 1994), 200 μM of each dNTP, in PCR buffer containing: 10 mM Tris-HCl (pH 8.3 at 25° C.) and 50 mM KCl. […] Reaction mixtures were preheated for 1 min at their respective denaturation temperatures, except for reactions performed at Td 95° C., that were preheated for 1 min at 94° C., and then subjected to 35 thermal cycles as follows: (I) 30 sec incubation at 72-95° C., as indicated in each experiment (denaturation step); (ii) 90 sec incubation at 37-55° C., as indicated in each experiment (primer annealing step); and (iii) 7 min incubation at 63-69° C., as indicated in each experiment (primer extension).
Reaction mixtures were preheated for 1 min at their respective denaturation temperatures (77° C. and 75° C.), and then subjected to 35 thermal cycles as follows: (i) 30 sec incubation at 77° C. or 75° C. (denaturation step); (ii) 90 sec incubation at 44° C. (primer annealing step); and (iii) 7 min incubation at 65° C. (primer extension).

[7] = test system: 349 b.p. fragment (66.5% GC) from Halobacterium marismortui genomic DNA; conditions: PCR with 10-15 units Klenow, denaturation 70° C., FIG. 12
T7 DNA polymerase = T7 DNA polymerase (Escherichia phage T7, UniProt P00581); conditions: 40% formamide; cited from earlier work
[8] = test system: [d(ATGCAT)]2 (SEQ ID NO:1); assay: Thermal transition of short oligonucleotide by 1H NMR chemical shift; conditions: for Tm: DNA alone 31.5
Method: (§3) ^1H NMR measurements were carried out on a Bruker AMX 400 NMR MHZ spectrometer at 400.13 MHZ (equipped with an Aspect 300 control). For the ^1H NMR measurements, 1.0 mM DNA oligonucleotides were dissolved in 0.5 ml phosphate buffer solution (pH 7.2) in D2O (20 mM, for [d(ATGCAT)]2 (SEQ ID NO:1) and 40 mM for [d([…])]2 (SEQ ID NO:2) containing 50 mM NaCl and 0.1 mM EDTA. The solutions were lyophilized and then redissolved in 0.5 ml D2O (99.96%), heated to 65 EC and gradually cooled to 5 EC, and then degassed with argon at room temperature.
(§4) The thermal transitions of the short oligonucleotides [d(ATGCAT)]2 (SEQ ID NO:1) (FIG. 4A) and [d([…])]2 (SEQ ID NO:2) (FIG. 4B) were studied in the absence (open squares) and presence of 0.5M (open circles) and 1.0M (filled squares) THP(B). NMR chemical shift changes of the C4H5 proton of [d(ATGCAT)]2 (SEQ ID NO:1) and of the G1H8 proton of [d([…])]2 (SEQ ID NO:2) were measured as a function of increasing temperatures as described in Materials and Methods section (iii).

[9] = test system: [d(GCTTAAGC)]2 (SEQ ID NO:2); assay: as above; conditions: for Tm: DNA alone 48.0
Method: as §3, §4

Taq DNA polymerase [10] = molecular target: T2, Taq DNA polymerase (Thermus aquaticus, UniProt P19821); assay: Remaining activity of Taq polymerase after incubation at elevated temperatures; type: biochemical; conditions: for remaining Taq polymerase activity: 1M additive
T2 construct: purchased MBI Fermentas
Method: THP(B), THP(A) or glycerol were added from 3M stock solutions (pH 8.8 at 25° C.). The reaction mixtures were overlaid with paraffin oil and incubated at 95° C. or 97° C. Aliquotes (7.5 μl) were taken for polymerase activity assay at different periods of time.

mammalian cells = conditions: cited from earlier work
animals = conditions: cited from earlier work
DNA = conditions: for each 10% increase in glycerol concentration; cited from earlier work
Taq polymerase = Taq polymerase (Thermus aquaticus, UniProt P19821); conditions: 95-97° C.; cited from earlier work
[11] = test system: 349 b.p. fragment (66.5% GC content) from Halobacterium marismortui genomic DNA; assay: PCR with THP(B) using Taq DNA polymerase; type: biochemical
Method: MgCl2 concentrations of 1.0 mM and 1.75 mM were used in the absence and presence of THP(B), respectively, added from a 3M stock solution (pH 8.8 at 25° C.). […] (primer extension).
PCR reaction was performed by Taq DNA polymerase as described in Materials and Methods, section (vii), using as a template whole genomic DNA of Halobacterium marismortui (66.5% GC) and the 28-mer primers 1 and 2 described in section (i).

Taq DNA polymerase [12] = molecular target: T2, Taq DNA polymerase; conditions: DMSO in 10% concentration; cited from earlier work
[13] = 30 min incubation at 97° C., 10% without additives
[14] = 60 min incubation at 97° C., 5% or less without additives

T2 sequence (P19821 whole entry): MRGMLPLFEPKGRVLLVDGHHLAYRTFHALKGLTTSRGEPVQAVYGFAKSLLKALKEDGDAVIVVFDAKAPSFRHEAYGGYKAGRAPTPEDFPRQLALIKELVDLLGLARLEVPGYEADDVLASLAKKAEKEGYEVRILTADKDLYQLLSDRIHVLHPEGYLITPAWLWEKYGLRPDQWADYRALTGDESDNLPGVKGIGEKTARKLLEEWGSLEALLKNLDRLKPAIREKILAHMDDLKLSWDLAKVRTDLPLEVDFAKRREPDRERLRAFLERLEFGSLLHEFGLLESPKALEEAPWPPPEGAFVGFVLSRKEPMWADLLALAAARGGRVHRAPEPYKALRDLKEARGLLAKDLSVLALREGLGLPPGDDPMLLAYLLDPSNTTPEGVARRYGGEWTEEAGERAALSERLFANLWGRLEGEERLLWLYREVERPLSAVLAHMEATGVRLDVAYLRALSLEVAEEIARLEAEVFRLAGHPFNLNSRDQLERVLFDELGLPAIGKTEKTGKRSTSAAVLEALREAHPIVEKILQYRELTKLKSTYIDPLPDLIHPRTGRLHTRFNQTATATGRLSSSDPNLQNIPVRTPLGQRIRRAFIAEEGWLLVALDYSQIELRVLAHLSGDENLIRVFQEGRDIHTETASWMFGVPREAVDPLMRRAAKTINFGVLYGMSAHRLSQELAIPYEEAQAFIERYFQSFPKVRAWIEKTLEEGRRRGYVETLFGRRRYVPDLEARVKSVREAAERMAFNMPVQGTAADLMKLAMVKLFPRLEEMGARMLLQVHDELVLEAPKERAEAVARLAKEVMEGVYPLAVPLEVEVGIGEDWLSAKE
T1 sequence (P00582 324-928): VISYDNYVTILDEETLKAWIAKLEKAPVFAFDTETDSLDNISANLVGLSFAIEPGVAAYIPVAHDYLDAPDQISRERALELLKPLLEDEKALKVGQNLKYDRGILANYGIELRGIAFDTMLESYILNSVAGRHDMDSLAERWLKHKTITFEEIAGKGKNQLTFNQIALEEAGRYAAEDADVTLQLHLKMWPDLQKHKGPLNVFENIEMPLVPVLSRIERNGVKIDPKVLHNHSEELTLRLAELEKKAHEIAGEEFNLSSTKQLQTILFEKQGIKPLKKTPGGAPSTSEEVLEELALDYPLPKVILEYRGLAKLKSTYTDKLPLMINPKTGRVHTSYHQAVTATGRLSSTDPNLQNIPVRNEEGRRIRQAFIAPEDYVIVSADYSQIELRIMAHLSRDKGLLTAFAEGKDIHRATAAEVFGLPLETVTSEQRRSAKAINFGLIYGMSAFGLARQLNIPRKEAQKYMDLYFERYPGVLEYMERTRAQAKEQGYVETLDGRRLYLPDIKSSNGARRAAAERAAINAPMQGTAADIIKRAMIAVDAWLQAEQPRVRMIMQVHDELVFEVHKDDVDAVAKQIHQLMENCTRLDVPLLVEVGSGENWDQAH
Sequence of Taq polymerase (P19821 whole entry, the tested form may be a part): as the sequence (P19821 whole entry) above
Sequence of T7 DNA polymerase (P0AA25 2-109): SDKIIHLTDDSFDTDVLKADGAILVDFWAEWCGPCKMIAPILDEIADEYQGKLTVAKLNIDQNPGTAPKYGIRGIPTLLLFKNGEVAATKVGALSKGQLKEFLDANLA
Sequence of T7 DNA polymerase (P00581 whole entry): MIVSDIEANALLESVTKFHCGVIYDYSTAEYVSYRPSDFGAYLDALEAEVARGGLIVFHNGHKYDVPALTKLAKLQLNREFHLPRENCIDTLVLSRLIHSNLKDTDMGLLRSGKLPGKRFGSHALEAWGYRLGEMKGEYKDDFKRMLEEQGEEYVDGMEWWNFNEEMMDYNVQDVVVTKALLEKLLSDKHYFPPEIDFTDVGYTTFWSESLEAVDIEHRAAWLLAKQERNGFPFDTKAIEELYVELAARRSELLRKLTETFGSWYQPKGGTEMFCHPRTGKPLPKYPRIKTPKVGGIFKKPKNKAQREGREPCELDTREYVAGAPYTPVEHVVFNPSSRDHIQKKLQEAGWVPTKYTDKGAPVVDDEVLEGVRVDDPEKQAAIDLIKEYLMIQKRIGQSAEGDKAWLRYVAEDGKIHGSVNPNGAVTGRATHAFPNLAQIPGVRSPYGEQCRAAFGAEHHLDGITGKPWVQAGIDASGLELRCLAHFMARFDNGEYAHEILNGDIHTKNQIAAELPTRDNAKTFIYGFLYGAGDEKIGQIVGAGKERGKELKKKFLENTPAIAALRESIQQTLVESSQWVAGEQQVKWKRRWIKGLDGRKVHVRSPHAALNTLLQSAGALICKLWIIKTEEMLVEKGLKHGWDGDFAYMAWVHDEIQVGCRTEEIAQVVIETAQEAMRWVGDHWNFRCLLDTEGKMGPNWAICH

SMILES: O=C(O)[C@@H]1CCCN1 [proline, L-Proline]
- DNA melting temperature (calf thymus DNA (42% GC); 6.2M proline): 27 °C
- change in melting temperature of poly(dA-dT) (poly(dA-dT); 1-5M proline): did not exhibit any change
- change in melting temperature of poly(dA-dT) (poly(dA-dT); 5-6.2M proline): small effect
- melting lower than DNAs of GC content 42% and 26% (poly(dA-dT); 6.2M proline): about 15 °C
- temperature range in which all DNAs melt ([1]; 6.2M proline, 38 to 78° C. in its absence): 25-32 °C
- Tm values of the tested natural DNAs ([1]; 6.2 M proline, 57-78° C. without): 28-32 °C
- range of melting higher than DNAs of GC content 42% and 26% [2]: about 5 °C
- effect on Klenow polymerase activity (Klenow DNA polymerase [3]): stimulative
- effect on Klenow DNA polymerase activity (Klenow DNA polymerase [3]; listed as L-proline): only slightly decreased
- effect on Klenow DNA polymerase activity (Klenow DNA polymerase [3]; listed as Proline): only slightly decrease
- half life of Klenow DNA polymerase relative to no additive (Klenow DNA polymerase [4]): 30-50 fold
- PCR performance ([5]; denaturation temperature 91° C.): enabled successful PCR
- PCR performance ([5]; denaturation temperature 95° C.): did not impair PCR performance
- PCR performance ([6]; denaturation temperature 75° C.): but not at 75 °C
- PCR performance ([6]; denaturation temperature 77° C.): enough for successful PCR
- proline concentration sufficient to confer stability to Klenow polymerase (and conduct successful PCR) [7]: 3-5.5 M

SMILES: NC=O [formamide]
- T7 DNA polymerase activity (T7 DNA polymerase): completely inactive

SMILES: C[N+](C)(C)CC(=O)O [betaine, Betaine, reference compound]
- Tm ([8]; 1.0 M additive): 29.2 °C
- decrease of melting temperature ([9]; 1.0M additive): −2 EC

SMILES: CC1=NCC(O)C(C(=O)O)N1 (stereo not shown) [THP(A), 2-methyl-4-carboxy-5-hydroxy-3,4,5,6-tetrahydropyrimidine]
- effectiveness in stabilizing Taq DNA polymerase (comparison) (Taq DNA polymerase [10]; 97° C., 1M additives, FIG. 5): more effective than THP(B) or glycerol
- remaining Taq polymerase activity (Taq DNA polymerase [10]; [13]): 50% and 55%
- remaining Taq activity relative to no additives (Taq DNA polymerase [10]; 60 min incubation at 97° C.): 10 fold
- remaining Taq polymerase activity (Taq DNA polymerase [10]; [14]): 45% and 55%
- toxicity (mammalian cells; mammalian cells): not toxic
- toxicity (animals; animals): not toxic

SMILES: OCC(O)CO [glycerol]
- effect on Klenow polymerase activity (Klenow DNA polymerase [3]): stimulative
- lowering of DNA melting temperatures (DNA): 2.5-3 °C
- thermal stability of Taq polymerase (Taq polymerase): doubling

SMILES: CC1=NCCC(C(=O)O)N1 (stereo not shown) [THP(B), 2-methyl-4-carboxy-3,4,5,6-tetrahydropyrimidine]
- DNA melting temperature (calf thymus DNA (42% GC); 3 or 4M THP(B)): 41 °C
- change in melting temperature of poly(dA-dT) (poly(dA-dT); 1-4M THP(B)): did not exhibit any change; also recorded: no change
- temperature range in which all DNAs melt ([1]; 4M THP(B), 39 to 75° C. in its absence): 40-43 °C
- decrease of melting temperature ([8]; 0.5M additive): 2 EC
- Tm ([8]; 0.5 M additive): 29.5 °C
- decrease of melting temperature ([8]; 1.0M additive): 3.5 EC
- Tm ([8]; 1.0 M additive): 28.0 °C
- decrease of melting temperature ([9]; 0.5M additive): 3 EC
- Tm ([9]; 0.5 M additive): 45.0 °C
- decrease of melting temperature ([9]; 1.0M additive): 6 EC
- Tm ([9]; 1.0 M additive): 42.0 °C
- remaining Taq polymerase activity (Taq DNA polymerase [10]; [13]): 40%
- remaining Taq polymerase activity (Taq DNA polymerase [10]; [14]): 20%
- PCR amplification ([11]; 0.5M THP(B), Td 92° C.): amplified sequences were produced only in the presence of THP(B)
- yield and specificity of DNA amplification ([11]; 0.5M THP(B), Td 95° C. and 92° C.): improved
- PCR amplification ([11]; 1.0M THP(B), Td 89° C., 0.5 units Taq): markedly lower
- PCR amplification ([11]; 1.0M THP(B), Td 90° C., 0.5 or 0.75 units Taq): specific amplified sequence was generated only in the presence of THP(B)
- PCR amplification ([11]; 1.0M THP(B), Td 95° C.): improved PCR specific amplification
- toxicity (mammalian cells): not toxic
- toxicity (animals; in vivo): not toxic

SMILES: C[S+](C)[O-] [DMSO]
- inhibition of Taq DNA polymerase activity (Taq DNA polymerase [12]): 53%
